Reference: patent US20240083846A1, “SMAC MIMETICS FOR TREATMENT OF CANCER, PROCESS FOR PREPARATION AND PHARMACEUTICAL COMPOSITION THEREOF” (COUNCIL OF SCIENTIFIC & INDUSTRIAL RESEARCH, priority 2020, published 2024)
“Also recorded” adds a separate entry of the source.

Assays:
786-O cells = assay: SRB cytotoxicity assay, 786-O; assay type: cell-based; conditions: Homo sapiens, 786-0, Kidney
Experimental: (§1) In vitro cytotoxic activities of different compounds were assessed by using standard SRB assay in different cells. The absorbance of the treated and untreated cells was measured on a multi-well scanning spectrophotometer (Epoch Microplate Reader, Biotek, USA) at a wavelength of 510 nm. Percent growth inhibition was calculated by using the formula […].
(§2) SMAC mimetics promotes tumor cell selective cytotoxic effects. SW 620, HT 29, HCT 116 and VERO cells were treated with series of Smac mimetics at 10 μM dose for 48 hours and cytotoxicity was measured by SRB assay. As C6 had shown robust in-vitro cytotoxic effect against tumor cells but not to VERO cells, we determined IC50 value of C6 against different types of cancer cell lines. ICso values are represented in Table 2.

cancer cells = assay: Colony formation assay; assay type: cell-based; conditions: FIG. 5
Experimental: The clonogenic colony formation assay was done on single-cell suspension. Briefly, cells were plated in complete McCoy's medium into 12-well plates and 24 hours later, were treated with different agents at different doses either alone or in combination. The cells were cultured for two weeks with renewing the media every 3rd day. The plates were washed with PBS and fixed with ice-cold methanol followed by staining with 0.5% crystal violet in methanol for 30 min. Excess stain was removed by washing with water thoroughly and plates were allowed to dry. Representative images were captured in the gel documentation system (Bio-Rad chemidoc XRS plus) while ImageJ software (NIH) was used for analysis and quantification to monitor single cell colony formation efficiency under the different treatment combinations.

Annexin-V positive cells = assay: Annexin-V apoptosis analysis; assay type: cell-based; conditions: FIG. 2, left
CT26 cells = assay: SRB cytotoxicity assay, CT26; assay type: cell-based; conditions: Colon (Mouse)
Experimental: as §1, §2

[1] = Stability studies of C6 (SIF, SGF, plasma, microsomes); assay type: in vitro ADME
[2] = test system: XIAP and cIAP1 protein expression; assay: Immunoblots from tumor tissues (in vivo target engagement); set-up: species or system mice; conditions: vs vehicle treated tumors
XIAP BIR2 protein = XIAP BIR2 protein (Homo sapiens, UniProt P98170); assay: Fluorescence polarization competition binding assay, XIAP BIR2; conditions: displacement of AVPIAQK(FAM)-OH, fluorescence polarization; read-out: Target Binding BIR2 Ki
Experimental: The SMAC mimetics 1-9 were tested for their ability to displace the fluorescent labeled peptide AVPIAQK(FAM)-OH from XIAP BIR2 or XIAP BIR3 protein. The dose dependent binding experiment were then carried out by sequentially increasing the concentration of SMAC mimetic compounds at constant concentration of fluorescent labeled peptide and XIAP BIR2 or XIAP BIR3 protein. IC5- values were determined from the plot draw by prism software using nonlinear least-squares analysis. The Ki values of the SMAC mimetics were calculated which was based upon the measured IC50 values, the Kd value between tracer AVPIAQK(FAM)-OH and XIAP BIR2 or XIAP BIR3 complex, and the concentrations of the protein and tracer in the competition assay by using the web based program which are freely accessed at http://sw16.im.med.umich.edu/software/calc_ki/.In-silico.
Binding isotherms were plotted between FP reading versus log values of protein concentration in nM. The data was analysed using GraphPad prism and Kd values were determined using Boltzmann-sigmoidal non-linear regression curve fitting.

HCT-116 xenograft = HCT-116 xenograft model; assay type: in vivo, nude Crl: CD1-Foxnlnu mice; conditions: vs control
Source text: (§3) All the animals were maintained in a pathogen-free facility under a day—night cycle.

[3] = test system: TRAIL mediated tumor cell cytotoxic response; assay: Combination cytotoxicity with DR5 ligand TRAIL; assay type: cell-based; conditions: in vitro, FIG. 4
HCT 116 cells = assay: SRB cytotoxicity assay, HCT 116; assay type: cell-based; conditions: Homo sapiens, HCT-116
Experimental: as §1

B-16 cells = assay: SRB cytotoxicity assay, B-16; assay type: cell-based; conditions: B16, Melanoma (Mouse)
Experimental: as §1, §2

PC-3 cells = assay: SRB cytotoxicity assay, PC-3; assay type: cell-based; conditions: Homo sapiens, Prostrate
Experimental: as §1, §2

MDAMB231 cells = assay: SRB cytotoxicity assay, MDAMB231; assay type: cell-based; conditions: Homo sapiens, MDA-MB-231, Breast
Experimental: as §1, §2

HT29 cells = assay: SRB cytotoxicity assay, HT29; assay type: cell-based; conditions: Homo sapiens, HT-29
Experimental: as §1

A-549 cells = assay: SRB cytotoxicity assay, A-549; assay type: cell-based; conditions: Homo sapiens, A549, Lung
Experimental: as §1, §2

[4] = xenograft studies, FIG. 7 and FIG. 8
Experimental: Mice were randomly assigned to groups by a blinded independent investigator. Throughout the study, the tumor was measured with an electronic digital caliper at a regular interval, and the tumor volume was calculated using standard formula V=Π/6×a2×b, where ‘a’ is the short and ‘b’ is the long tumor axis. At the end of the experiment, mice were sacrificed, and subcutaneous tumors were dissected for further studies. Parts of harvested tumors were minced into small pieces with sterile forceps and scissors and homogenized for lysate preparation.

4T1 cells = assay: SRB cytotoxicity assay, 4T1; assay type: cell-based; conditions: Breast (Mouse)
Experimental: as §1, §2

HCC1806 cells = assay: SRB cytotoxicity assay, HCC1806; assay type: cell-based; conditions: Homo sapiens, Breast
Experimental: as §1, §2

cancer cell lines = assay: Cytotoxic potential against cancer cell lines (overall statement); assay type: cell-based; conditions: all cancer cells tested
Experimental: as §1, §2

SW-620 xenograft = assay: Cisplatin resistant SW-620 xenograft model; assay type: in vivo, nude Crl: CD1-Foxnlnu mice; conditions: FIG. 7
Source text: as §3

in vivo = conditions: mouse
Experimental: SIF, SGF and other stability studies were performed by following standard protocol. […] Mice were administered their respective doses according to body weight by intravenous (lateral vein), Subcutaneous route and Oral respectively. Blood samples were collected at 0.083, 0.25, 0.5, 0.75, 1, 2, 4, 8, 12, 24 and 48 hours. Plasma was separated and processed for analysis. For pharmacokinetic analysis, plasma concentration versus time data were plotted and analyzed by non-compartmental analysis method using WinNonlin (Pharsight, Mountain View, CA) software.

K562 cells = assay: SRB cytotoxicity assay, K562; assay type: cell-based; conditions: Homo sapiens, Leukemia
Experimental: as §1, §2

Sequence of XIAP BIR2 protein (P98170 124-240 limits assumed): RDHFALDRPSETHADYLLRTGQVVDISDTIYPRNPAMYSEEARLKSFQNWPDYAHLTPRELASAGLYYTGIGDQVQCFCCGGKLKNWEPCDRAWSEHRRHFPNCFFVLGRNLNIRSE

CC[C@H](C)[C@H](NC(=O)[C@@H]1CC[C@H](c2ccc(C)o2)N1C(=O)[C@@H](NC(=O)[C@H](C)NC)C(C)C)C(=O)NC(c1ccccc1)c1ccccc1 [Compound 6, (2S,5R)-N-((2S,3S)-1-(benzhydrylamino)-3-methyl-1-oxopentan-2-yl)-1-((S)-3-methyl-2-((S)-2-(methylamino)propanamido)butanoyl)-5-(5-methylfuran-2-yl)pyrrolidine-2-carboxamide]
IC50 (786-O cells): 7.2 µM | Colony formation in XIAP overexpressed and DR5 knock down cells (cancer cells; XIAP overexpressed and DR5 knock down cells): significant resistant of C6 mediated apoptotic cell death | Colony formation: effect of Pan caspase inhibitor Z-VAD-FMK on C6 cytotoxic phenotype (cancer cells; with Z-VAD-FMK): markedly rescues cytotoxic phenotype of C6 | Apoptosis (Annexin-V positive cells) (Annexin-V positive cells): promotes smac driven apoptotic features | IC50 (CT26 cells): > 10 µM | Stability in HLM ([1]; HLM): quite stable | Stability in MLM ([1]; MLM): quite stable | Stability in SGF ([1]; SGF, listed as C6): highly stable; also recorded: quite stable | Stability in SIF ([1]; SIF, listed as C6): highly stable; also recorded: quite stable | Stability in microsome ([1]; microsome): highly stable | Stability in plasma ([1]; plasma): quite stable | XIAP and cIAP1 protein expression in tumors [2]: reduced XIAP and cIAP1 protein expression | Ki (XIAP BIR2 protein): 3.21 µM | Xenograft tumor volume (HCT-116 xenograft; oral administration): markedly reduced | Xenograft tumor weight (HCT-116 xenograft; oral administration): markedly reduced | Xenograft tumor volume (HCT-116 xenograft; subcutaneous administration): markedly reduced | Xenograft tumor weight (HCT-116 xenograft; subcutaneous administration): markedly reduced | Sensitization of TRAIL mediated tumor cell cytotoxic response [3]: robustly sensitizes | inhibition at 10 µM (HCT 116 cells; 10 μM, 48 hours, SRB assay, read-out: In vitro cytotoxicity at 10 μM dose, HCT 116 (percent growth inhibition)): 61.3 ± 2.9% | IC50 (HCT 116 cells; Colon, HCT116): 8.93 µM | IC50 (B-16 cells): 6.7 µM | IC50 (PC-3 cells): 6.02 µM | IC50 (MDAMB231 cells): 4.15 µM | inhibition at 10 µM (HT29 cells; 10 μM, 48 hours, SRB assay, read-out: In vitro cytotoxicity at 10 μM dose, HT29 (percent growth inhibition)): 65 ± 3.6% | IC50 (HT29 cells; Colon, HT29): 6.66 µM | IC50 (A-549 cells): > 10 µM | Body weight / tolerability during course of treatment [4]: no weight loss was observed | IC50 (4T1 cells): 4.17 µM | IC50 (HCC1806 cells): 5.79 µM | Cytotoxic activity against cancer cells (in words) (cancer cell lines): potent cytotoxic activity | In vivo anti tumor efficacy (SW-620 xenograft): potent anti tumor efficacy | half-life (in vivo; iv, 4 mg/kg): 0.19 ± 0.05 h | half-life (in vivo; po, 30 mg/kg): 3.84 ± 1.8 h | half-life (in vivo; sc, 30 mg/kg): 2.1 ± 0.15 h | IC50 (K562 cells): 9.1 µM
